{
  "source": "paper PMC4494705",
  "about": "(PLoS ONE, 2015)",
  "key": {"[1]": {"test": "Single time point (1 h) brain concentrations after i.n. administration in rats", "format": "in vivo", "conditions": "rat, 30 mg/kg i.n., 1 h post dose; for concentration at 1 h: male, Wistar, other: intranasal (i.n.)"}, "GCP-II [2]": {"tested_on": "GCP-II", "conditions": "GCP-II inhibition, cited from earlier work"}, "[3]": {"test": "Pharmacokinetics of 2-PMPA after i.p. administration in rats", "format": "in vivo", "conditions": "rat, 30 mg/kg i.p.", "method": "For i.p. studies 2-PMPA was administered as a single i.p. dose. All dosing solutions were prepared on the day of the experiment in 50 mM HEPES buffered saline, and pH adjusted to 7.4 before injection. At various time points following drug administration (0.16, .5, 1, 3, 5 h) post dose, animals (n = 3 per time point, except 3 h n = 2 animals) were euthanized with CO2, and blood samples were collected in heparinized microtubes by cardiac puncture and tissues (olfactory bulb, frontal cortex, and cerebellum) were dissected and immediately flash frozen (-80°C). Plasma was prepared by centrifugation immediately after collection of blood samples. All samples were stored in -80°C until bioanalysis. […]\nThe maximum plasma concentration (Cmax) and time to Cmax (Tmax) were the observed values. The area under the plasma concentration time curve (AUC) value was calculated to the last quantifiable sample (AUClast) by use of the log-linear trapezoidal rule. The brain to plasma partition coefficients were calculated as a ratio of their AUCs (AUC0-t,brain/AUC0-t,plasma). The elimination half-life (t1/2) was determined by dividing 0.693 by λ z."}, "GCP-II [4]": {"target": "T1, GCP-II (Rattus norvegicus, UniProt P70627)", "T1 construct": "from tissue; host or cells: rat brain (olfactory bulb, cortex, cerebellum), sonicated homogenate supernatant", "T1 sequence (P70627 whole entry)": "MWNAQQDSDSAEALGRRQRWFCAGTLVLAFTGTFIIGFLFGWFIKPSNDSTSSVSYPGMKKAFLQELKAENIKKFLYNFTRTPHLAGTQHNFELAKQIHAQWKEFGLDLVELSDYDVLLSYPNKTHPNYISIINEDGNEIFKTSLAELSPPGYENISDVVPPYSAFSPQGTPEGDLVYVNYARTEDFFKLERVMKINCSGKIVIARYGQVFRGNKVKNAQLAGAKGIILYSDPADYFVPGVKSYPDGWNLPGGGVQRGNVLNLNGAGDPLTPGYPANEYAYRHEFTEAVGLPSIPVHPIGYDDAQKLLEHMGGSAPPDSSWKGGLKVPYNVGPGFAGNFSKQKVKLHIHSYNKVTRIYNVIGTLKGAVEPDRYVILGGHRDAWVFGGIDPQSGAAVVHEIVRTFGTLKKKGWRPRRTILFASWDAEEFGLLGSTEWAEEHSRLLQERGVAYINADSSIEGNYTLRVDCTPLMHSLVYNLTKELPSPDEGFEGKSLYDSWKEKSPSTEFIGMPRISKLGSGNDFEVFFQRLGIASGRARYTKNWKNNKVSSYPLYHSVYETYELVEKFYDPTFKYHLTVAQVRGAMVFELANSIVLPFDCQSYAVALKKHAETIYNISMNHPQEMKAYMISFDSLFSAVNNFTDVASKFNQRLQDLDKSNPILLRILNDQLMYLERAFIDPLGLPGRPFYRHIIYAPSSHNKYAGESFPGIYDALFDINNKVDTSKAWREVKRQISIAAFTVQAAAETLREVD", "test": "Ex vivo GCP-II enzymatic (NAAG hydrolyzing) activity in brain tissue after i.n. administration", "conditions": "for inhibition at 30 mg/kg: inhaled or nasal, 30 mg/kg i.n., 1 h post dose, relative to untreated control rats", "method": "One half of the brain tissues collected following i.n. administration (1h post dose) was used to determine GCP-II NAAG hydrolyzing activity. In brief, tissues were weighed and immersed in 0.5 mL of ice-cold 50 mM Tris Buffer (pH 7.7 at RT). Each tissue was sonicated for 30–60 seconds using an ultrasonic cell disrupter. After a 2 minute spin at 13,000 g, supernatants were analyzed for protein content and NAAG-hydrolyzing activity measurements were performed as previously described."}, "[5]": {"test": "Plasma and CSF exposure after i.n. administration in non-human primate", "format": "in vivo", "conditions": "male cynomolgus monkey, 30 min post dose", "method": "Total dose delivered was 100 mg.\nStandard curves were generated in blank artificial CSF. […] Samples were analysed on agilent QTOF mass spectrometer by LC/MS."}, "[6]": {"conditions": "following systemic administration; ref [45]; cited from earlier work"}, "[7]": {"test": "Pharmacokinetics of 2-PMPA after i.n. administration in rats", "format": "in vivo", "conditions": "rat"}, "[8]": {"conditions": "non-human primates; halted development; no reference given; cited from earlier work"}, "[9]": {"conditions": "cerebellum, read-out: Mean concentration in cerebellum"}, "[10]": {"conditions": "frontal cortex, read-out: Mean concentration in cortex"}, "[11]": {"conditions": "olfactory bulb, read-out: Mean concentration in olfactory bulb"}, "[12]": {"conditions": "printed in Fig 1, no method or reference given in this paper, read-out: Potency (IC50)"}},
  "note": "Entries after “also recorded” stand apart in the source; their conditions may differ. Read-outs that look alike come from different tables or passages of the source.",
  "data": [
    {"smiles": "O=C(O)CC[C@H](NC(=O)N[C@@H](CS)C(=O)O)C(=O)O", "note": "[DCMC, N-[N-[(S)-1,3-dicarboxypropyl]carbamoyl]-L-cysteine, reference compound]", "values": [
      {"measurement": "concentration at 1 h", "setting": "[1]; [9]", "value": 200, "unit": "ng/g"},
      {"measurement": "concentration at 1 h", "setting": "[1]; [10]", "value": 2030, "unit": "ng/g"},
      {"measurement": "concentration at 1 h", "setting": "[1]; [11]", "value": 2120, "unit": "ng/g"},
      {"measurement": "IC50", "setting": "GCP-II [2]; [12]", "value": 3.1, "unit": "nM"}
    ]},
    {"smiles": "O=C(O)CCC(CP(=O)(O)O)C(=O)O", "note": "(stereo not drawn) [2-PMPA, 2-(phosphonomethyl)-pentanedioic acid]", "values": [
      {"measurement": "Kp", "setting": "[3]; male, Wistar, cerebellum, ip, read-out: Brain tissue to plasma ratio (AUC0-t,brain/AUC0-t,plasma), cerebellum", "value": "< 0.02"},
      {"measurement": "Kp", "setting": "[3]; male, Wistar, frontal cortex, ip, read-out: Brain tissue to plasma ratio (AUC0-t,brain/AUC0-t,plasma), cortex", "value": "< 0.02"},
      {"measurement": "half-life", "setting": "[3]; male, Wistar, ip, plasma, read-out: Elimination t1/2 (converted)", "value": 59.4, "unit": "min"},
      {"measurement": "Cmax", "setting": "[3]; male, Wistar, ip, plasma, read-out: Peak plasma concentration (Cmax)", "value": 49500, "unit": "ng/mL"},
      {"measurement": "AUC(0-t)", "setting": "[3]; male, Wistar, plasma, ip, read-out: AUC0-t plasma", "value": 50300, "unit": "ng·h/mL"},
      {"measurement": "CL/F", "setting": "[3]; male, Wistar, plasma, ip, read-out: Apparent clearance", "value": 9.71, "unit": "mL/min/kg"},
      {"measurement": "AUC0-t cerebellum", "setting": "[3]", "value": 0.80, "unit": "µg·h/g"},
      {"measurement": "AUC0-t cortex", "setting": "[3]", "value": 0.84, "unit": "µg·h/g"},
      {"measurement": "AUC0-t olfactory bulb", "setting": "[3]", "value": 1.15, "unit": "µg·h/g"},
      {"measurement": "Apparent volume of distribution", "setting": "[3]", "value": 0.82, "unit": "L/kg"},
      {"measurement": "Mean concentration in cerebellum", "setting": "[1]", "value": 2.13, "unit": "µg/g"},
      {"measurement": "Mean concentration in cortex", "setting": "[1]", "value": 10.3, "unit": "µg/g"},
      {"measurement": "Mean concentration in olfactory bulb", "setting": "[1]", "value": 31.2, "unit": "µg/g"},
      {"measurement": "Inhibition of brain GCP-II enzymatic activity ex-vivo (in words)", "setting": "GCP-II [4]; i.n. administration", "value": "complete inhibition"},
      {"measurement": "inhibition at 30 mg/kg", "setting": "GCP-II [4]; read-out: Inhibition of GCP-II activity, cerebellum", "value": 70, "unit": "%"},
      {"measurement": "inhibition at 30 mg/kg", "setting": "GCP-II [4]; read-out: Inhibition of GCP-II activity, cortex", "value": 100, "unit": "%"},
      {"measurement": "inhibition at 30 mg/kg", "setting": "GCP-II [4]; read-out: Inhibition of GCP-II activity, olfactory bulb", "value": 100, "unit": "%"},
      {"measurement": "CSF concentration versus the IC50", "setting": "[5]; i.n.", "value": "[…]"},
      {"measurement": "Plasma level", "setting": "[5]; total dose 100 mg i.n., below the limit of quantitation", "value": "< 50", "unit": "nM"},
      {"measurement": "Brain to plasma ratio", "setting": "[6]", "value": "≤ 2", "unit": "%"},
      {"measurement": "Cmax", "setting": "[7]; male, Wistar, other: intranasal (i.n.), 30 mg/kg i.n., plasma", "value": 24700, "unit": "ng/mL"},
      {"measurement": "AUC(0-t)", "setting": "[7]; male, Wistar, plasma, other: intranasal (i.n.), 30 mg/kg i.n., read-out: AUC0-t plasma", "value": 52300, "unit": "ng·h/mL"},
      {"measurement": "AUC0-t cerebellum", "setting": "[7]; 30 mg/kg i.n.", "value": 5.27, "unit": "µg·h/g"},
      {"measurement": "AUC0-t cortex", "setting": "[7]; 30 mg/kg i.n.", "value": 37.7, "unit": "µg·h/g"},
      {"measurement": "AUC0-t olfactory bulb", "setting": "[7]; 30 mg/kg i.n.", "value": 78.1, "unit": "µg·h/g"},
      {"measurement": "Brain tissue to plasma ratio (AUC0-t,brain/AUC0-t,plasma), cerebellum", "setting": "[7]; 30 mg/kg i.n.", "value": 0.10},
      {"measurement": "Brain tissue to plasma ratio (AUC0-t,brain/AUC0-t,plasma), cortex", "setting": "[7]; 30 mg/kg i.n.", "value": 0.71},
      {"measurement": "Brain tissue to plasma ratio (AUC0-t,brain/AUC0-t,plasma), olfactory bulb", "setting": "[7]; 30 mg/kg i.n.", "value": 1.49},
      {"measurement": "Share of 2-PMPA reaching the brain accounted from the plasma", "setting": "[7]; i.n., pooled plasma and brain data of i.p. and i.n. routes", "value": 2, "unit": "%"},
      {"measurement": "IC50", "setting": "GCP-II [2]; ref [4],[13], read-out: IC50", "value": "[…]"}
    ]},
    {"smiles": "O=C(O)CCC(CCCS)C(=O)O", "note": "(stereo not drawn) [2-MPPA, 2-(3-mercaptopropyl)pentane-dioic acid]", "values": [
      {"measurement": "concentration at 1 h", "setting": "[1]; [9]", "value": 210, "unit": "ng/g"},
      {"measurement": "concentration at 1 h", "setting": "[1]; [10]", "value": 260, "unit": "ng/g"},
      {"measurement": "concentration at 1 h", "setting": "[1]; [11]", "value": 4460, "unit": "ng/g"},
      {"measurement": "Toxicity observed in primate studies", "setting": "[8]", "value": "membranoproliferative glomerular nephritis; also recorded: immunological toxicities"},
      {"measurement": "IC50", "setting": "GCP-II [2]; [12]", "value": 90, "unit": "nM"}
    ]}
  ]
}
